Test results as given in paper PMC9403987 (Frontiers in Oncology, 2022).

Key:
LI1088 = test: Subcutaneous LI1088 liver cancer xenograft; type: in vivo, BALB/c nude mice; settings: 25 mg/kg daily oral, 28 days, measured day 25
Experimental: (§1) The efficacy of GLR2007 was evaluated in human GBM and breast cancer orthotopic cell-line-derived xenografts in NOD/SCID mice (Shanghai Lingchang Biotechnology Co. Ltd, Shanghai, China) and BALB/c nude mice (Shanghai Sino-British SIPPR/BK Laboratory Animal Co. Ltd, Shanghai, China), and human lung, colorectal, and liver cancer subcutaneous cell-line-derived xenografts in BALB/c nude mice (Nanjing University National Resource Center, Nanjing, China, or Beijing Anikeeper Biotech Co., Beijing, China). Mice were maintained in humidity- and temperature-controlled conditions with food and water available ad libitum. For subcutaneous models, female BALB/c nude mice were inoculated at 4–8 weeks old with 3×10^6–1×10^7 tumor cells (see Table 1 for xenograft model cell types) in the right flank for tumor development. Randomization was performed when the mean tumor volume reached 118–171 mm^3.

BN2289 = test: Subcutaneous BN2289 glioblastoma xenograft; type: in vivo, BALB/c nude mice; settings: 28 days, measured day 21
Experimental: as §1

COLO 205 = test: Subcutaneous COLO 205 colorectal cancer xenograft; type: in vivo, BALB/c nude mice; settings: 26 days, measured day 25
Experimental: as §1

SNU-449 = test: Cell proliferation assay; type: cell-based, Homo sapiens; settings: SNU-449, liver, hepatocellular carcinoma, 72 hours
Experimental: (§2) To quantify cell proliferation, either the nuclei of live cells were counted following staining with 4’,6-diamidino-2-phenylindole (DAPI; Sigma-Aldrich, Burlington, MA, USA), or metabolically active cells were detected using a CellTiter-Glo assay (Promega Corporation, Madison, WI, USA). Cells from a range of human and mammalian tumor cell lines (American Type Culture Collection, Manassas, VA, USA) were seeded at 4000 cells per well in 100 μL of culture medium in a 96-well plate and incubated overnight at 37°C with 5% CO2. […] In the DAPI staining method, cells were washed using 1× phosphate-buffered saline (PBS; Gibco Thermo Fisher Scientific, Waltham, MA, USA), fixed with 4% formaldehyde, permeabilized with 0.2% Triton X-100 (Sigma-Aldrich), washed again, and stained with 1 μg/mL DAPI to visualize cell nuclei. Cells were washed with 1× PBS three times, and 100 μL 1× PBS was added to each well. Plates were scanned using an IN Cell Analyzer 2200 (GE Healthcare Life Sciences, Chicago, IL, USA) and the number of cells per well was recorded. In the CellTiter-Glo assay, 60 μL of CellTiter-Glo luminescent solution was added to each well after incubation with the test compounds, and the assay plate was scanned using a Tecan Infinite M1000 PRO microplate reader (Tecan Group AG, Männedorf, Switzerland) to record luminescent signals.

SNU-398 = test: Cell proliferation assay; type: cell-based, Homo sapiens; settings: SNU-398, liver, hepatocellular carcinoma, 72 hours
Experimental: as §2

NCI-H23 = test: Cell proliferation assay; type: cell-based, Homo sapiens; settings: NCI-H23, lung, NSCLC, 72 hours
Experimental: as §2

KP-N-YN = test: Cell proliferation assay; type: cell-based, Homo sapiens; settings: neural, neuroblastoma, 72 hours
Experimental: as §2

Hep G2 = test: Cell proliferation assay; type: cell-based, Homo sapiens; settings: Hep G2, liver, hepatocellular carcinoma, 72 hours
Experimental: as §2

NCI-H1792 = test: Cell proliferation assay; type: cell-based, Homo sapiens; settings: NCI-H1792, lung carcinoma, 72 hours
Experimental: as §2

NCI-H1299 = test: Cell proliferation assay; type: cell-based, Homo sapiens; settings: NCI-H1299, lung, NSCLC, 72 hours
Experimental: as §2

HLE = test: Cell proliferation assay; type: cell-based, Homo sapiens; settings: liver, hepatocellular carcinoma, 72 hours
Experimental: as §2

PC-9 = test: Cell proliferation assay; type: cell-based, Homo sapiens; settings: PC-9, lung carcinoma, 72 hours
Experimental: as §2

Du4475 = test: Cell proliferation assay; type: cell-based, Homo sapiens; settings: Du4475, breast carcinoma, 72 hours
Experimental: as §2

M059K = test: Cell proliferation assay; type: cell-based, Homo sapiens; settings: brain, glioblastoma, 72 hours
Experimental: as §2

HCCLM3 = test: Cell proliferation assay; type: cell-based, Homo sapiens; settings: HCCLM3, liver, hepatocellular carcinoma, 72 hours
Experimental: as §2

NCI-H1975 = test: Subcutaneous NCI-H1975 non-small cell lung cancer xenograft; type: in vivo, BALB/c nude mice; settings: 22 days, measured day 16
Experimental: as §1

U87-luc tumor cells = test: Orthotopic U87-luc glioblastoma xenograft; type: in vivo, BALB/c nude mice; settings: for TGI (%) / Increase in median survival time (%): 42 days; for TGI (%): measured day 21, bioluminescence; for Increase in median survival time (%): versus vehicle group
Experimental: as §1, with “libitum.” for “libitum. For subcutaneous models, female BALB/c nude mice were inoculated at 4–8 weeks old with 3×10^6–1×10^7 tumor cells (see Table 1 for xenograft model cell types) in the right flank for tumor development. Randomization was performed when the mean tumor volume reached 118–171 mm^3.”
In a GBM orthotopic xenograft study, female BALB/c nude mice were inoculated intracranially at 6–8 weeks old with 3×10^5 U87-luc tumor cells plus Matrigel (Corning Life Sciences, Tewksbury, MA, USA) in a 4:1 ratio in PBS at the right frontal lobe. Tumor growth was quantified using intraperitoneal administration of 150 mg/kg luciferin to anesthetized mice, and tumor bioluminescence was measured using an IVIS Lumina II imaging system (PerkinElmer Inc.). In one study, mice were randomized at day 6 after tumor implantation (mean bioluminescence of 2.81×10^7 photons/sec), and in the other, mice were randomized at day 14 or day 15 (mean bioluminescence of 7.49×10^6 photons/sec).
Statistical analysis of differences in mean tumor volume among groups was conducted via an independent samples t-test or one-way analysis of variance (ANOVA; two-sided Dunnett’s test). For comparison among three or more groups, a one-way ANOVA was performed. Multiple comparison procedures were applied after ANOVA when significant F-statistics (ratio of treatment variance to error variance) were obtained. Comparisons between groups were carried out using the Games test. P<0.05 was considered to be statistically significant. Survival times were analyzed using the Kaplan–Meier method, with curves constructed for each group and the log-rank (Mantel–Cox) test used to compare survival curves between groups. Body weight change was calculated based on the weight on the first day of dosing.

**Q.** CC1=Nc2c(F)cc(-c3nc(Nc4ccc(C5CCN(C)CC5)cn4)ncc3F)cc2C12CCCC2 [GLR2007] was tested. Which “TGI (%)” value (LI1088) did it give?
**A.** 57.7%

**Q.** And the “TGI (%)” value (BN2289; 5 mg/kg daily oral)?
**A.** 4.9%

**Q.** What about the “TGI (%)” value (BN2289; 25 mg/kg daily oral) of the same compound?
**A.** 39.4%

**Q.** And the “TGI (%)” value (BN2289; 50 mg/kg daily oral)?
**A.** 56.4%

**Q.** And the “TGI (%)” value (COLO 205; 5 mg/kg daily oral)?
**A.** 42.6%

**Q.** And the “TGI (%)” value (COLO 205; 25 mg/kg daily oral)?
**A.** 72.2%

**Q.** What about the IC50 (SNU-449) of the same compound?
**A.** 67 nM

**Q.** What about the IC50 (SNU-398) of the same compound?
**A.** 51 nM

**Q.** What about the IC50 (NCI-H23) of the same compound?
**A.** 243 nM

**Q.** And the IC50 (KP-N-YN)?
**A.** 657 nM

**Q.** What about the IC50 (Hep G2) of the same compound?
**A.** 2550 nM

**Q.** What about the IC50 (NCI-H1792) of the same compound?
**A.** 3 nM

**Q.** What about the IC50 (NCI-H1299) of the same compound?
**A.** 564 nM

**Q.** And the IC50 (HLE)?
**A.** 143 nM

**Q.** And the IC50 (PC-9)?
**A.** 180 nM

**Q.** And the IC50 (Du4475)?
**A.** 2040 nM

**Q.** What about the IC50 (M059K) of the same compound?
**A.** 3250 nM

**Q.** What about the IC50 (HCCLM3) of the same compound?
**A.** 1840 nM

**Q.** What about the “TGI (%)” value (NCI-H1975; 10 mg/kg daily oral) of the same compound?
**A.** 27.6%

**Q.** What about the “TGI (%)” value (NCI-H1975; 25 mg/kg daily oral) of the same compound?
**A.** 50.0%

**Q.** What about the “TGI (%)” value (U87-luc tumor cells; 12.5 mg/kg daily oral) of the same compound?
**A.** 86.3%

**Q.** And the “Increase in median survival time (%)” value (U87-luc tumor cells; 12.5 mg/kg daily oral)?
**A.** 50.0%

**Q.** What about the “Weight loss, GLR2007 versus abemaciclib groups” value (U87-luc tumor cells; orthotopic U87-luc xenograft mice treated for 42 days) of the same compound?
**A.** comparable

**Q.** With CCN1CCN(Cc2ccc(Nc3ncc(F)c(-c4cc(F)c5nc(C)n(C(C)C)c5c4)n3)nc2)CC1 [Abemaciclib, abemaciclib, reference compound] as the compound, how does the “TGI (%)” value (LI1088) read?
**A.** 22.4%

**Q.** And the “TGI (%)” value (BN2289; 25 mg/kg daily oral)?
**A.** 24.9%

**Q.** And the “TGI (%)” value (COLO 205; 25 mg/kg daily oral)?
**A.** 57.7%

**Q.** What about the IC50 (SNU-449; Homo sapiens) of the same compound?
**A.** 159 nM

**Q.** What about the IC50 (SNU-398; Homo sapiens) of the same compound?
**A.** 173 nM

**Q.** What about the IC50 (NCI-H23; Homo sapiens) of the same compound?
**A.** 904 nM

**Q.** And the IC50 (KP-N-YN; Homo sapiens)?
**A.** 827 nM

**Q.** And the IC50 (Hep G2; Homo sapiens, HepG2)?
**A.** 3200 nM

**Q.** And the IC50 (NCI-H1792; Homo sapiens)?
**A.** 23 nM

**Q.** And the IC50 (NCI-H1299; Homo sapiens)?
**A.** 463 nM

**Q.** What about the IC50 (HLE; Homo sapiens) of the same compound?
**A.** 389 nM

**Q.** And the IC50 (PC-9; Homo sapiens)?
**A.** 457 nM

**Q.** And the IC50 (Du4475; Homo sapiens, DU-4475)?
**A.** 10000 nM

**Q.** What about the IC50 (M059K; Homo sapiens) of the same compound?
**A.** 871 nM

**Q.** What about the IC50 (HCCLM3; Homo sapiens) of the same compound?
**A.** 3100 nM

**Q.** What about the “TGI (%)” value (NCI-H1975; 25 mg/kg daily oral) of the same compound?
**A.** 6.9%

**Q.** And the “TGI (%)” value (U87-luc tumor cells; 150 mg/kg daily oral)?
**A.** 79.0%

**Q.** What about the “Increase in median survival time (%)” value (U87-luc tumor cells; 150 mg/kg daily oral) of the same compound?
**A.** 54.4%
